Source: publication PMC10673563, “In Vitro and In Vivo Biological Evaluation of Indole-thiazolidine-2,4-dione Derivatives as Tyrosinase Inhibitors” (Molecules, 2023)
pIC50, pKi: −log10 of the molar value. Values belong to the compound of their own block, whether it stands above or below them.

Tests used:
Mushroom tyrosinase = target: T1, Mushroom tyrosinase (Agaricus bisporus, UniProt C7FF04); assay: Tyrosinase inhibitory activity assay (L-DOPA, absorbance 475 nm); type: biochemical; conditions: for inhibition at 32 µM: initial concentration of 32 μM
T1 construct: purchased Sigma-Aldrich (Shanghai, China)
T1 sequence (C7FF04 1-392): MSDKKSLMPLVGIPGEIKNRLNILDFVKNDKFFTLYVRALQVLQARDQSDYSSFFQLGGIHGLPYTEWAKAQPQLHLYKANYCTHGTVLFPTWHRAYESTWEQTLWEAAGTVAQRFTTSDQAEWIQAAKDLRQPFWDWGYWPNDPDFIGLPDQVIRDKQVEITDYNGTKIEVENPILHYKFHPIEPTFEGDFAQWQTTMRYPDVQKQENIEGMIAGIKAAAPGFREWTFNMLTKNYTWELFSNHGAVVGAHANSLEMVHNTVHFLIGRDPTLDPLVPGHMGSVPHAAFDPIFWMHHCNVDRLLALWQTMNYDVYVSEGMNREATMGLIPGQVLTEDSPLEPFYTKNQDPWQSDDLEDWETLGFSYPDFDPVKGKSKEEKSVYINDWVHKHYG
Description: The tyrosinase inhibitory activities of compounds 5a~5z were determined according to previous reports. In brief, 10 μL of compound was added into 140 μL of tyrosinase, incubated for 5 min at room temperature. Then, 50 μL of L-DOPA was added, followed by the measurement of absorbance change at 475 nm. The inhibition rate at different concentrations was calculated and compared to the blank control.

tyrosinase [1] = target: T2, tyrosinase (Agaricus bisporus, UniProt C7FF04); assay: Inhibition kinetics (Lineweaver–Burk plots); type: biochemical, mushroom
T2 construct: purchased Sigma-Aldrich (Shanghai, China)
Description: To understand the inhibition mechanism of this kind of compound on tyrosinase, the inhibition kinetics of the preferable compound 5w were investigated. […] With the increasing concentrations of 5w, the Y-intercept of corresponding lines increased and the X-intercept decreased, meaning the decrease of Vmax and Km.
The kinetics studies of 5w were conducted using the above experimental procedure. The absorbance changes in the mixture containing 5w (0, 4, 8, and 16 μM), tyrosinase (66.7 U/mL), and L-DOPA (2, 4, 6, and 8 mM) were recorded, respectively. The data were analyzed using Lineweaver–Burk plots.
Target sequence in this assay (C7FF04 1-392 limits assumed): as the sequence (C7FF04 1-392) above

tyrosinase [2] = target: T2, tyrosinase; assay: Fluorescence quenching titration (Stern–Volmer); type: binding, mushroom
Description: Fluorescence quenching, an effective method for monitoring the binding of a compound to its target protein, was operated to examine the binding of compound 5w with tyrosinase.
For a further understanding of the binding process of compound 5w with tyrosinase, the fluorescence quenching manner was assayed using the Stern–Volmer equation. In the Stern–Volmer plots of compound 5w (Figure 3D), the lines at different temperatures presented a good linear, which illustrated only one quenching manner in their binding process. Although the quenching constant (Ksv) values were slightly proportional to temperature, the quench rate constant (Kq) values at different temperatures were all higher than 2 × 10^10 L mol^−1 S^−1, which is the maximum scattering collision quenching constant (Table 2). […] In addition, the number of binding sites (n) was obtained to be about one, meaning there was only one binding site between compound 5w and tyrosinase (Table 2).
According to a previous report, the fluorescence quenching titration was run. In total, 1 μL of 5w solution was progressively titrated into 2 mL of tyrosinase (0.17 mg/mL), followed by fluorescence spectra determination (λex = 280 nm) at temperatures of 298, 303, and 308 K, respectively. The quenching parameters were obtained using the Stern–Volmer equation.
Target sequence in this assay (C7FF04 1-392 limits assumed): as the sequence (C7FF04 1-392) above

tyrosinase [3] = target: T2, tyrosinase; assay: CD spectra, secondary structure content of tyrosinase; parameters: species or system mushroom
Description: CD spectra, one widely used method for determining the secondary structure of protein, were applied to assay the effects of 5w on the conformation change of tyrosinase. The CD spectra of the tyrosinase–compound 5w mixture were monitored and two negative characteristic bands around 210 and 222 nm appeared (Figure 4), which represented typical features of α-helixes.
The CD spectra of tyrosinase (33 μM) and tyrosinase–compound 5w mixture were measured at room temperature, respectively, based on previous reports. The test wavelengths were 195~250 nm.
Target sequence in this assay (C7FF04 1-392): as above

tyrosinase [4] = target: T2, tyrosinase; assay: Three-dimensional fluorescence spectra; parameters: species or system mushroom; conditions: 5w 8.5 μM
Description: Three-dimensional fluorescence spectra were employed to monitor the effects of compound 5w on the conformation and microenvironment changes in tyrosinase. In the 3D fluorescence spectra of tyrosinase (Figure 5A), two characteristic peaks 1 and 2 appeared, which corresponded to Tyr and Trp residues and polypeptide strand transition, respectively.
Based on a previous report, the 3D fluorescence spectra of tyrosinase (0.17 mg/mL) and tyrosinase–compound 5w mixture were measured, respectively, at room temperature. The test wavelengths were 200–400 nm.
Target sequence in this assay (C7FF04 1-392 limits assumed): as the sequence (C7FF04 1-392) above

B16F10 cells = assay: Cell cytotoxicity (MTT); type: cell-based; conditions: 4~32 μM, 48 h
Description: The effects of compound 5w and kojic acid on the cells’ viability were determined using the MTT method. B16F10 cells (5000 cells/well) were seeded into the 96-well plate for 24 h, followed by the treatment of compound 5w or kojic acid (4~32 μM) for another 48 h. Then, MTT solution (0.5 mg/mL) was added and incubated for 4 h. DMSO (100 μL) was used to dissolve the violet precipitates, and then the mixture was measured for its absorbance at 570 nm.

[5] = tested on: tyrosinase activity in B16F10 cells; assay: Tyrosinase activity in B16F10 cells; type: cell-based; conditions: 16 and 32 μM; for cellular tyrosinase activity: 48 h
Description: The tyrosinase inhibitory activity of 5w in B16F10 cells was determined. B16F10 cells (1 × 10^5 cells/well) were seeded into the 6-well plate for 24 h and subsequently treated with compound 5w or kojic acid for another 48 h. Then, the harvested cells were suspended into the appropriate amount of Triton X-100 (1%) and frozen for 1 h at −80 °C. After it had thawed, the mixture was centrifuged to collect the supernatant. Then, its protein concentration was determined using a BCA Kit. After 20 μL of L-DOPA (10 mM) was added into 80 μL of protein solution, the absorbance change at 475 nm was measured.

[6] = tested on: melanogenesis in B16F10 cells; assay: Melanin content in B16F10 cells; type: cell-based; conditions: 16 and 32 μM; for melanogenesis in B16F10 cells: 48 h
Description: B16F10 cell treatment was consistent with the above method. The harvested cells were suspended into NaOH (1 M, 200 μL). After boiling for 1 h, the mixture was measured to determine the absorbance change at wavelength of 405 nm.

[7] = tested on: tyrosinase activity in zebrafish; assay: Tyrosinase activity in zebrafish; type: in vivo; conditions: for tyrosinase activity in zebrafish: zebrafish embryos
Description: The embryos treated with compound 5w or kojic acid were lysed in PBS, followed by centrifugation to obtain the supernatant. The appropriate amount of supernatant, equal L-DOPA (5 mg/mL), was added and the absorbance at 475 nm was determined.

[8] = tested on: melanogenesis in zebrafish; assay: Melanin content in zebrafish (microscope, Image J); type: in vivo; conditions: for grayscale values of whole embryos / pigmentation of embryo (eyes, yolk sac, notum): compared to control embryo; for pigmentation of embryo (eyes, yolk sac, notum): embryo photos
Description: The embryos treated with compound 5w or kojic acid were observed under a microscope and the melanin content was assayed using Image J software.

SMILES: O=C(CN1C(=O)S/C(=C\c2ccccc2)C1=O)NCCc1c[nH]c2ccccc12 [5a]
inhibition at 32 µM (Mushroom tyrosinase): 14.2%

SMILES: Cc1ccccc1/C=C1\SC(=O)N(CC(=O)NCCc2c[nH]c3ccccc23)C1=O [5b]
inhibition at 32 µM (Mushroom tyrosinase): 19.3%

SMILES: Cc1cccc(/C=C2\SC(=O)N(CC(=O)NCCc3c[nH]c4ccccc34)C2=O)c1 [5c]
inhibition at 32 µM (Mushroom tyrosinase): 33.2%

SMILES: Cc1ccc(/C=C2\SC(=O)N(CC(=O)NCCc3c[nH]c4ccccc34)C2=O)cc1 [5d]
inhibition at 32 µM (Mushroom tyrosinase): 15.1%

SMILES: O=C(CN1C(=O)S/C(=C\c2ccccc2F)C1=O)NCCc1c[nH]c2ccccc12 [5e]
inhibition at 32 µM (Mushroom tyrosinase): 16.5%

SMILES: O=C(CN1C(=O)S/C(=C\c2cccc(F)c2)C1=O)NCCc1c[nH]c2ccccc12 [5f]
inhibition at 32 µM (Mushroom tyrosinase): 32.6%

SMILES: O=C(CN1C(=O)S/C(=C\c2ccc(F)cc2)C1=O)NCCc1c[nH]c2ccccc12 [5g]
inhibition at 32 µM (Mushroom tyrosinase): 27.4%

SMILES: O=C(CN1C(=O)S/C(=C\c2ccccc2Cl)C1=O)NCCc1c[nH]c2ccccc12 [5h]
inhibition at 32 µM (Mushroom tyrosinase): 16.8%

SMILES: O=C(CN1C(=O)S/C(=C\c2cccc(Cl)c2)C1=O)NCCc1c[nH]c2ccccc12 [5i]
inhibition at 32 µM (Mushroom tyrosinase): 37.6%

SMILES: O=C(CN1C(=O)S/C(=C\c2ccc(Cl)cc2)C1=O)NCCc1c[nH]c2ccccc12 [5j]
inhibition at 32 µM (Mushroom tyrosinase): 36.6%

SMILES: O=C(CN1C(=O)S/C(=C\c2ccccc2Br)C1=O)NCCc1c[nH]c2ccccc12 [5k]
inhibition at 32 µM (Mushroom tyrosinase): 31.7%

SMILES: O=C(CN1C(=O)S/C(=C\c2cccc(Br)c2)C1=O)NCCc1c[nH]c2ccccc12 [5l]
pIC50 (Mushroom tyrosinase): 4.88 | inhibition at 32 µM (Mushroom tyrosinase): > 70%

SMILES: O=C(CN1C(=O)S/C(=C\c2ccc(Br)cc2)C1=O)NCCc1c[nH]c2ccccc12 [5m]
inhibition at 32 µM (Mushroom tyrosinase): 19.5%

SMILES: O=C(CN1C(=O)S/C(=C\c2ccccc2C(F)(F)F)C1=O)NCCc1c[nH]c2ccccc12 [5n]
inhibition at 32 µM (Mushroom tyrosinase): 3.8%

SMILES: O=C(CN1C(=O)S/C(=C\c2cccc(C(F)(F)F)c2)C1=O)NCCc1c[nH]c2ccccc12 [5o]
inhibition at 32 µM (Mushroom tyrosinase): 4.5%

SMILES: N#Cc1cccc(/C=C2\SC(=O)N(CC(=O)NCCc3c[nH]c4ccccc34)C2=O)c1 [5w]
pIC50 (Mushroom tyrosinase): 4.95 | inhibition at 32 µM (Mushroom tyrosinase): > 70% | inhibition type (tyrosinase [1]; Lineweaver–Burk plots): mixed-type tyrosinase inhibitor | pKi (tyrosinase [1]; from plots of slope vs. inhibitor concentration, read-out: inhibition constant (Ki)): 4.93 | fluorescence quenching process (tyrosinase [2]): static quenching process | KSV (tyrosinase [2]; T 298 K): 3.77 ×10^4 Lmol^−1 | Kq (tyrosinase [2]; T 298 K): 3.77 ×10^12 Lmol^−1 | n (number of binding sites) (tyrosinase [2]; T 298 K): 0.72 | KSV (tyrosinase [2]; T 303 K): 3.84 ×10^4 Lmol^−1 | Kq (tyrosinase [2]; T 303 K): 3.84 ×10^12 Lmol^−1 | n (number of binding sites) (tyrosinase [2]; T 303 K): 0.74 | KSV (tyrosinase [2]; T 308 K): 4.47 ×10^4 Lmol^−1 | Kq (tyrosinase [2]; T 308 K): 4.47 ×10^12 Lmol^−1 | n (number of binding sites) (tyrosinase [2]; T 308 K): 0.82 | quench rate constant (Kq) (tyrosinase [2]; at different temperatures (298, 303, 308 K)): higher than 2 × 10^10 L mol^−1 S^−1 | Random Coil (%) (tyrosinase [3]; [Enzyme]: [5w] 1: 1): 32.5% | α-Helix (%) (tyrosinase [3]; [Enzyme]: [5w] 1: 1): 8.8% | β-Sheet (%) (tyrosinase [3]; [Enzyme]: [5w] 1: 1): 33.6% | β-Turn (%) (tyrosinase [3]; [Enzyme]: [5w] 1: 1): 19.9% | Random Coil (%) (tyrosinase [3]; [Enzyme]: [5w] 1: 2): 34.5% | α-Helix (%) (tyrosinase [3]; [Enzyme]: [5w] 1: 2): 8.9% | β-Sheet (%) (tyrosinase [3]; [Enzyme]: [5w] 1: 2): 33.1% | β-Turn (%) (tyrosinase [3]; [Enzyme]: [5w] 1: 2): 20.0% | Random Coil (%) (tyrosinase [3]; [Enzyme]: [5w] 1: 3): 35.5% | α-Helix (%) (tyrosinase [3]; [Enzyme]: [5w] 1: 3): 9.0% | β-Sheet (%) (tyrosinase [3]; [Enzyme]: [5w] 1: 3): 32.7% | β-Turn (%) (tyrosinase [3]; [Enzyme]: [5w] 1: 3): 20.1% | 3D fluorescence characteristic peaks 1 and 2 of tyrosinase (tyrosinase [4]): reduced significantly accompanied by a slight shift | effect on cells' viability (B16F10 cells): obvious effects | cellular anti-tyrosinase activity compared with kojic acid [5]: obvious higher | cellular tyrosinase activity [5]: could inhibit | anti-melanogenesis activity compared with kojic acid [6]: obvious higher | melanogenesis in B16F10 cells [6]: could inhibit | anti-tyrosinase activity in zebrafish compared with kojic acid ([7]; concentration of 10 μM): higher anti-tyrosinase activity than kojic acid | tyrosinase activity in zebrafish [7]: could reduce the tyrosinase activity in zebrafish | decrease in grayscale values compared with kojic acid ([8]; Image J): displayed a higher decrease | grayscale values of whole embryos ([8]; Image J): decrease in grayscale values | pigmentation of embryo (eyes, yolk sac, notum) [8]: pigmentation decrease

SMILES: O=c1cc(CO)occ1O [Kojic acid, reference compound]
effect on cells' viability (B16F10 cells): obvious effects | cellular tyrosinase activity [5]: could inhibit | melanogenesis in B16F10 cells [6]: could inhibit | tyrosinase activity in zebrafish [7]: could reduce the tyrosinase activity in zebrafish | grayscale values of whole embryos ([8]; Image J): decrease in grayscale values | pigmentation of embryo (eyes, yolk sac, notum) [8]: pigmentation decrease

More lines, now with the values ahead:

inhibition at 32 µM (Mushroom tyrosinase): 3%
SMILES: O=C(CN1C(=O)S/C(=C\c2ccc(C(F)(F)F)cc2)C1=O)NCCc1c[nH]c2ccccc12 [5p]

inhibition at 32 µM (Mushroom tyrosinase): 1%
SMILES: COc1ccccc1/C=C1\SC(=O)N(CC(=O)NCCc2c[nH]c3ccccc23)C1=O [5q]

inhibition at 32 µM (Mushroom tyrosinase): 2%
SMILES: COc1cccc(/C=C2\SC(=O)N(CC(=O)NCCc3c[nH]c4ccccc34)C2=O)c1 [5r]

inhibition at 32 µM (Mushroom tyrosinase): 1%
SMILES: COc1ccc(/C=C2\SC(=O)N(CC(=O)NCCc3c[nH]c4ccccc34)C2=O)cc1 [5s]

inhibition at 32 µM (Mushroom tyrosinase): 26.9%
SMILES: O=C(CN1C(=O)S/C(=C\c2ccccc2O)C1=O)NCCc1c[nH]c2ccccc12 [5t]

inhibition at 32 µM (Mushroom tyrosinase): 36.2%
SMILES: O=C(CN1C(=O)S/C(=C\c2cccc(O)c2)C1=O)NCCc1c[nH]c2ccccc12 [5u]

inhibition at 32 µM (Mushroom tyrosinase): 24.6%
SMILES: O=C(CN1C(=O)S/C(=C\c2ccc(O)cc2)C1=O)NCCc1c[nH]c2ccccc12 [5v]

inhibition at 32 µM (Mushroom tyrosinase): 24.6%
SMILES: N#Cc1ccc(/C=C2\SC(=O)N(CC(=O)NCCc3c[nH]c4ccccc34)C2=O)cc1 [5x]

inhibition at 32 µM (Mushroom tyrosinase): 19.8%
SMILES: O=C(CN1C(=O)S/C(=C\c2cccc([N+](=O)[O-])c2)C1=O)NCCc1c[nH]c2ccccc12 [5y]

inhibition at 32 µM (Mushroom tyrosinase): 19.1%
SMILES: O=C(CN1C(=O)S/C(=C\c2ccc([N+](=O)[O-])cc2)C1=O)NCCc1c[nH]c2ccccc12 [5z]
